Values of other authors, collected in patent US9066953B2, “Methods for increasing endurance and fat metabolism in humans” (Quality IP Holdings, LLC, priority 2012, dated 2015).

Key:
[1] = test system: hGH; settings: for effect on hGH: other amino acids, literature
[2] = test system: GH; settings: subcutaneous injection of 0.06 IU, GH deficient subjects

Compound | effect on hGH [1] | further results
NCCCC[C@H](N)C(=O)O [lysine] | marked increases in hGH | 
NCCC[C@H](N)C(=O)O [ornithine] | marked increases in hGH | 
N=C(N)NCCC[C@H](N)C(=O)O [arginine] |  | elevation of serum hGH levels ([1]; 30 g intravenous, in males): 8.6 fold; increase of hGH levels ([1]; intravenous infusion of 183 mg/kg body weight in females): > 20 fold
CSCC[C@H](N)C(=O)O [methionine] | marked increases in hGH | 
HGH: injected human growth hormone used in the treatment of GH deficient subjects |  | mean levels of GH reached [2]: 0.4 ng/mL
N[C@@H](Cc1c[nH]cn1)C(=O)O [histidine] | marked increases in hGH | 
N[C@@H](Cc1ccccc1)C(=O)O [phenylalanine] | marked increases in hGH | 
